In the supplement of paper PMC10307832:

Legend:
Assay in all cases: relative viability (nuclei count vs DMSO), 5 days (fraction); higher = more cells survive
[1] = compound: C1CC2=C(C1)C=C(C=C2)OC3=NC(=C4C(=N3)N(C=N4)CC5=CC=C(C=C5)C6=CC=CC=C6)N[C@@H](CC7=CC=CC=C7)CO [QS11] + CC1(C)CCC(c2ccc(Cl)cc2)=C(CN2CCN(c3ccc(C(=O)NS(=O)(=O)c4ccc(N[C@H](CCN5CCOCC5)CSc5ccccc5)c(S(=O)(=O)C(F)(F)F)c4)cc3)CC2)C1 [Navitoclax] (partner 0.5 µM)
Outline: (§1)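 Relative viability equals treated-well nuclei counts divided by vehicle-well nuclei counts. Counts came from 4× images of lung cancer cell lines grown in 1536-well plates for 5 days after pin-tool dosing on the day after seeding. Dosing used one drug alone or a fixed anchor-drug dose plus five library-drug doses (not always all listed) in √10 steps, and values are medians of duplicate plates.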

[2] = compound: C1CC2=C(C1)C=C(C=C2)OC3=NC(=C4C(=N3)N(C=N4)CC5=CC=C(C=C5)C6=CC=CC=C6)N[C@@H](CC7=CC=CC=C7)CO [QS11] + NC(=O)Nc1cc(-c2cccc(F)c2)sc1C(=O)N[C@H]1CCCNC1 [AZD7762] (partner 0.2 µM)
Outline: as §1

[3] = compound: CC1=C(C=C(C=C1)NC(=O)C2=CC(=CC=C2)C(C)(C)C#N)NC3=CC4=C(C=C3)N=CN(C4=O)C [AZ628] + CC(=O)c1c(C)c2cnc(Nc3ccc(N4CCNCC4)cn3)nc2n(C2CCCC2)c1=O [Palbociclib] (partner 0.5 µM)
Outline: as §1

[4] = compound: C[As](C)SC[C@H](NC(=O)CC[C@H](N)C(=O)O)C(=O)NCC(=O)O [Darinaparsin] + CC(=O)c1c(C)c2cnc(Nc3ccc(N4CCNCC4)cn3)nc2n(C2CCCC2)c1=O [Palbociclib] (partner 0.5 µM)
Outline: as §1

Cell Line | relative viability ([1]; first compound 0.08 µM) | relative viability ([1]; first compound 0.253 µM) | relative viability ([1]; first compound 0.8 µM) | relative viability ([1]; first compound 2.53 µM) | relative viability ([1]; first compound 8 µM) | relative viability ([2]; first compound 0.08 µM) | relative viability ([2]; first compound 0.253 µM) | relative viability ([2]; first compound 0.8 µM) | relative viability ([2]; first compound 2.53 µM) | relative viability ([2]; first compound 8 µM) | relative viability ([3]; first compound 0.08 µM) | relative viability ([3]; first compound 0.253 µM) | relative viability ([3]; first compound 0.8 µM) | relative viability ([3]; first compound 2.53 µM) | relative viability ([3]; first compound 8 µM) | relative viability ([4]; first compound 0.08 µM) | relative viability ([4]; first compound 0.8 µM) | relative viability ([4]; first compound 2.53 µM) | relative viability ([4]; first compound 8 µM)
201T | 1.19 | 1.22 | 0.994 | 1.24 | 1.17 | 0.669 | 0.748 | 0.591 | 0.619 | 0.617 | 0.368 | 0.358 | 0.381 | 0.39 | 0.366 | 0.345 | 0.342 | 0.363 | 0.368
A549 | 1.2 | 1.37 | 1.21 | 1.06 | 0.808 |  |  |  |  |  |  |  |  |  |  |  |  |  | 
A-427 | 0.992 | 1.02 |  | 1.02 | 1.01 | 0.673 | 0.744 |  | 0.856 | 1.05 | 0.475 | 0.446 | 0.497 | 0.475 | 0.427 | 0.585 | 0.494 | 0.567 | 0.549
ABC-1 |  |  |  |  |  | 0.74 | 0.776 | 0.732 | 0.774 | 0.843 | 0.795 | 0.586 | 0.5 | 0.884 | 0.712 | 0.879 | 0.6 | 0.744 | 0.729
BEN | 0.0566 | 0.0797 | 0.0702 | 0.047 | 0.0634 | 0.577 | 0.66 | 0.929 | 0.773 | 0.79 | 0.487 | 0.489 | 0.46 | 0.51 | 0.452 | 0.492 | 0.445 | 0.488 | 0.43
CAL-12T | 1.18 | 1.39 | 1.15 | 1.08 | 1.14 | 0.736 | 0.572 | 0.546 | 0.596 | 0.551 | 0.473 | 0.304 | 0.209 | 0.232 | 0.161 | 0.446 | 0.387 | 0.408 | 0.478
COR-L23 | 1.06 | 0.922 | 0.818 | 0.865 | 0.761 |  |  |  |  |  | 0.327 | 0.293 | 0.257 | 0.268 | 0.187 | 0.303 | 0.335 | 0.246 | 0.299
COR-L 105 | 0.77 | 0.618 | 0.788 | 0.733 | 0.83 |  |  |  |  |  | 0.368 | 0.368 | 0.429 | 0.344 | 0.453 | 0.456 | 0.373 | 0.397 | 0.382
Calu-6 | 1.08 | 0.844 | 0.872 | 1.01 | 0.901 |  |  |  |  |  |  |  |  |  |  |  |  |  | 
ChaGo-K-1 |  | 1.01 | 1.42 | 1.66 | 1.21 |  | 0.862 | 1 | 0.941 | 1 | 0.993 | 0.934 | 0.892 | 0.986 | 1.02 | 0.95 | 0.958 | 0.856 | 1.06
EBC-1 | 0.387 | 0.352 | 0.374 | 0.363 | 0.393 |  |  |  |  |  |  |  |  |  |  |  |  |  | 
EKVX | 0.957 | 0.863 |  | 0.891 | 1.1 | 0.693 | 0.743 | 0.627 | 0.649 | 0.755 | 0.393 | 0.374 | 0.478 | 0.452 | 0.3 | 0.451 | 0.365 | 0.366 | 0.38
EMC-BAC-2 | 1.14 | 1.28 | 0.896 | 1.12 | 0.654 | 1.1 | 0.99 | 0.957 | 0.989 | 0.856 | 0.521 | 0.55 | 0.535 | 0.519 | 0.554 | 0.516 | 0.491 | 0.515 | 0.54
EPLC-272H | 1.13 | 1.17 | 1.15 | 1.08 | 1.36 |  | 0.202 | 0.246 | 0.278 | 0.247 | 0.32 | 0.345 | 0.292 | 0.317 | 0.25 | 0.318 | 0.315 | 0.333 | 0.292
H3255 | 0.552 | 0.587 |  | 0.55 | 0.704 | 0.931 | 0.946 | 0.634 | 1.01 | 0.902 | 0.284 | 0.297 | 0.309 | 0.326 | 0.328 | 0.303 | 0.313 | 0.329 | 0.294
HARA | 1.17 | 1.21 |  | 1.21 | 1.35 | 0.63 |  | 0.267 | 0.454 | 0.329 | 0.216 | 0.3 | 0.223 | 0.275 | 0.222 | 0.25 | 0.257 | 0.21 | 0.29
HCC-15 | 0.728 | 0.795 |  | 0.877 | 0.782 | 1.27 | 1.26 | 0.877 | 1.22 | 0.461 | 0.708 | 0.718 | 0.656 | 0.677 | 0.421 | 0.639 | 0.773 | 0.723 | 0.882
HCC-44 | 0.943 | 0.93 | 0.666 | 0.792 | 0.718 | 1.11 | 0.995 | 0.65 | 1.02 | 1.02 | 1.01 | 0.942 | 0.96 | 0.958 | 1.15 | 1.04 | 0.916 | 1.02 | 1
HCC-78 | 0.802 | 0.797 | 0.756 | 0.841 | 0.818 | 0.677 | 0.527 | 0.552 | 0.703 | 0.703 | 0.478 | 0.454 | 0.516 | 0.53 | 0.449 | 0.46 | 0.509 | 0.475 | 0.503
HCC-366 | 1.05 | 1.08 |  | 0.721 | 0.414 | 0.28 | 0.259 |  | 0.271 | 0.192 | 0.383 | 0.352 | 0.328 | 0.445 | 0.163 | 0.603 |  | 0.368 | 0.533
